According to publication PMC11434980, “Deciphering Chemical Rules for Drug Penetration into Strongyloides” (Pharmaceutics, 2024):
Several values for one entry are separate records, joined by “and”; a condition that tells them apart may be missing. Equal entries are not always repeated. Where two headings read alike, the source gives them in different places.

Experiments:
[1] = system: parasitic females of S. venezuelensis; experiment: In vitro activity against adult females (movement categories); type: cell-based, Strongyloides venezuelensis; conditions: 10 µM, 50–70 worms per well
Method: Seven to nine days after infection, the mice or rats were euthanized and the small intestine was removed, sliced longitudinally, minced, and placed in a sedimentation cup wrapped in 8 layers of gauze in phosphate-buffered solution (PBS) for two hours at 37 °C. Parasitic females were collected from the sediment and washed twice with saline solution (NaCl 0.15 mol/L) and twice with Roswell Park Memorial Institute 1640 (RPMI 1640) (Gibco, Whaltman, MA, USA) supplemented with 10% heat-inactivated FBS, 100 µg/mL streptomycin, and 100 U/mL penicillin (Gibco, Whaltman, MA, USA) to avoid contamination during the in vitro assays. After collection, females were placed in 96-well plates with supplemented RPMI medium and kept at 37 °C. We tested three different female population densities to explore the effects on the measured activity: 1–3 females, 10–15 females, and 50–70 females per well. At 24 h after plating, the compounds were applied at 10 µM and the anti-parasitic activity was evaluated at 1, 24, 48, and 72 h after treatment based on movement for 30 s observation periods under the microscope (40×). […] All experiments were conducted in duplicate and at least three different times. […]

[2] = system: S. venezuelensis L3s; experiment: Staining (uptake) of L3 larvae by the dyes; type: cell-based, Strongyloides venezuelensis; conditions: for lowest staining concentration (Conc): 72 h
Method: (§1) Baerman-obtained S. venezuelensis L3s were rinsed twice with distilled water and counted, and 100 to 150 larvae were placed per well in 96-well flat-bottom culture plates. Larvae were incubated at 28 °C for 30 min to allow adaptation and treated with compounds in the range of 0.5–40 µM for 72 h at 28 °C in a humid atmosphere. Mortality was assessed as the lack of any movement detected during 1 min of observation under an inverted microscope (40×), at 24, 48, and 72 h after treatment. The ability to stain the larvae was pointed out when observed; at 72 h, larvae were collected and washed two times with distilled water and placed in a new well to remove the background color and photographed. Pictures were also taken at 24 and 48 h without cleaning the larvae so as not to interfere with the 72 h readout of the experiment. […] All experiments were conducted in triplicate and at least three different times. The antiparasitic activity of the compounds was expressed as the concentration that inhibited the motility of half of the larvae (immobilization concentration 50, IC50).

[3] = system: S. venezuelensis L3s; experiment: microbe, parasite or virus in culture; conditions: L3s
Method: as §1
A total of 15 dyes were tested against S. venezuelensis L3s at a 20 µM concentration. The activity was determined by the number of larvae lacking motility relative to the total number in the well after 1 min of light excitation at 24, 48, and 72 h after treatment.

[4] = system: parasitic females of S. venezuelensis; experiment: Staining of adult females by the dyes; type: cell-based, Strongyloides venezuelensis; conditions: 10 µM
[5] = system: HeLa (human cervical cancer) cell line; experiment: Cytotoxicity, MTT method; type: cell-based
Method: (§2) A cytotoxicity test was performed using the HeLa (human cervical cancer) cell line according to the MTT method. Cells were from the ATCC (Manassas, VA, USA). They were cultured at 37 °C in sub-confluent conditions under a 95% humidified atmosphere and 5% CO2 in Dulbecco’s Modified Eagle Medium (DMEM) (Gibco, Whaltman, MA, USA) supplemented with 10% heat-inactivated FBS, 2 mM L-glutamine, 100 U/mL penicillin, and 100 µg/mL streptomycin. […] The antiproliferative activity was measured in triplicate after 72 h using the MTT (3-(4,5-dimethylthiazol-2-yl)-2,5-diphenyltetrazolium bromide) Cell Proliferation Kit (Roche, Boston, MA, USA), following the manufacturer’s specifications. […] The selectivity index (SI = HeLa IC50/L3 IC50) for each compound was calculated to compare the antiparasitic activity with its respective human cell cytotoxicity.

[6] = Cytotoxicity, MTT method; type: cell-based, human; conditions: human; HeLa cells, 72 h, MTT; read-out: HeLa IC50 (antiproliferative activity / cytotoxicity)
Method: as §2

[7] = system: S. venezuelensis experimental infections of mice; experiment: In vivo activity in S. venezuelensis experimental infection of mice (eggs in feces, parthenogenetic females); parameters: species or system Strongyloides venezuelensis; conditions: for reduction in the number of parthenogenetic females: day 8 p.i., compared to infection group; for parthenogenetic females recovered per mouse at day 8 p.i.: ivermectin 0.2 mg/kg oral day 5 p.i., dyes 20 mg/kg/day day 0 to 5 p.i.
Method: All animals were infected by subcutaneous injection with 3000 […] of S. venezuelensis resuspended in PBS. […] The eggs per gram was reported. The recovery of parasite females was performed as described above. The mean was determined for the eggs per gram (EPG) of feces and parthenogenetic female counts. The color of the feces and urine in the beds was recorded.

[8] = system: parasitic females of S. venezuelensis; experiment: In vitro activity against adult females (movement categories); type: cell-based, Strongyloides venezuelensis; conditions: 72 h
[9] = system: parasitic females of S. venezuelensis; parameters: method as in PMID 35914566; conditions: never achieving complete absence of movement at these concentrations; read-out: IC50 against adult females (literature); cited from earlier work
[10] = read-out: IC50 72 h (immobilization concentration 50 of cultured L3s), 72 h

| Compound | Activity against parasitic females 1 h [1] | Activity against parasitic females 24 h [1] | Activity against parasitic females 48 h [1] | Activity against parasitic females 72 h [1] | Staining 72 h (L3 staining ability) [2] | lowest staining concentration (Conc) [2] | Screening 20 µM 72 h ([3]; 72 h) | Staining of parasitic females [4] | staining of adult females [4] | IC50 at 72 h [6] | reduction in the number of parthenogenetic females [7] | parthenogenetic females recovered per mouse at day 8 p.i. [7] | effect on adult females [1] | IC50 [3, 10] | other results |
| --- | --- | --- | --- | --- | --- | --- | --- | --- | --- | --- | --- | --- | --- | --- | --- |
| CN(C)c1ccc(C(=C2C=CC(=[N+](C)C)C=C2)c2ccc(N(C)C)cc2)cc1 [Crystal Violet] | Healthy | Healthy | Slightly affected | Slightly affected | Yes | 2 µM | Active | No | did not stain | 1000 nM | 46.5% | 182 | – | – | selectivity index (SI = HeLa IC50/L3 IC50) ([5]; HeLa IC50 / L3 IC50): 0.31 |
| CN(C)c1ccc2nc3ccc(=[N+](C)C)cc-3sc2c1 [Methylene Blue] | Healthy | Affected | Death | Death | Yes | 1 µM | – | Yes | clearly stained | 1100 nM | – | – | significantly affected | 4300 ± 300 nM | IC50 [8]: 6.02 µM; Staining (Time) ([4]; time at which staining of females was seen): 24 h |
| Ivermectin | Affected | Affected | Slightly affected | Slightly affected | – | – | Active | – | – | – | 91.5% | 29 ± 12.3 and 29 | noticeable spasmodic movement | 1500 ± 300 nM | IC50 [9]: > 229 µM; IC50 ([3]; read-out: IC50 24 h (immobilization concentration 50 of cultured L3s), 24 h): 2100 ± 100 nM; IC50 ([3]; read-out: IC50 48 h (immobilization concentration 50 of cultured L3s), 48 h): 1600 ± 300 nM; IC50 ([5]; HeLa cells, 72 h, MTT, read-out: HeLa IC50 (antiproliferative activity / cytotoxicity)): 5.9 µM; Eggs in feces at peak, day 5 p.i. ([7]; ivermectin (Noromectin) single oral dose 0.2 mg/kg on day 5 p.i.): 20,534 ± 15,961 eggs per gram |
